Data: patent publication US20160279175A1, “METHODS FOR REDUCING DEVELOPMENT OF RESISTANCE TO ANTIBIOTICS” (REGENTS OF THE UNIVERSITY OF MINNESOTA, priority 2015, published 2016)
Bridge positions count the residues as written; N and C are the ends. Ends that are not written are not given here.

Assays:
[1] = tested on: vancomycin-resistant E. faecium; assay type: cell-based, Enterococcus faecium; settings: for synergy of the AMPs with the antibiotic: antibiotic combined with supernatant containing the three AMPs, data not shown; for activity of antibiotic alone against E. faecium: clinically relevant concentrations: 50 μg/mL streptomycin, 100 μg/mL ampicillin, 30 μg/mL rifampicin; for reduction of E. faecium counts, antibiotic combined with the three peptides: combination with Enterocin A, Enterocin P, Hiracin JM79
Description: L. lactis containing pNZCA3 was grown overnight in BHI. Cells were then re-inoculated in fresh BHI at an OD600 of 0.07-0.1. Because BHI contains ˜0.15 M NaCl, no additional salt was added for induction. Cells were then grown ˜6 hours then cell-free culture supernatant was obtained by centrifugation of culture at 12,000×g at 4° C. for 10 min, filtered through 0.2 μm pore-size filters (Whatman Int. Ltd., Maidstone, UK), and stored at −20° C. until use.
E. faecium was grown overnight in BHI at 37° C. and L. lactis-pNZCA3 was grown in BHI at 32° C. E. faecium was then inoculated at an OD600 of ˜0.06 into 5 ml fresh BHI broth, and allowed to grow to an OD600 of ˜0.1. For antibiotic experiments, 50 μg/mL streptomycin (Chem-Implex Int'l Inc., Wood Dale, Ill., U.S.A.), 100 μg/mL ampicillin (Sigma), or 30 μg/mL rifampicin (Gilbert et al., 2013, The Sanford Guide to Antimicrobial Therapy 2013 43 Pocth Edition|Rent 9781930808744|11930808747. Antimicrob. Ther.) were added to the fresh BHI broth. Cultures were then supplemented with 10% of the previously obtained supernatant or 10% of L. lactis-pNZCA3 culture at an OD600 of ˜0.1 (time=0 hours). […] Samples of the cultures were then taken at different times, serial diluted, and plated (10 μL of each dilution) on GM17 plates containing 5 μg/mL rifampicin (GM17-Rif) or 5 μg/mL chloramphenicol (GM17-Cm) and incubated overnight at 37° C. The following day E. faecium or L. lactis colony forming units (CFU) were counted on GM17-Rif and GM17-Cm plates, respectively.
Data for FIG. 9 represent technical triplicates obtained from one of three individual tests.

[2] = tested on: wild type E. faecium 8E9 and EntA/EntP/HirJM79-resistant mutant of E. faecium 8E9; test: Agar diffusion assay of pure Enterocin B; assay type: cell-based, Enterococcus faecium; settings: 1 μg and 0.1 μg enterocin B
Description: For the agar diffusion activity assays, liquid brain heart infusion (BHI) agar was inoculated with 0.5 μL of E. faecium overnight culture per mL medium. The inoculated agar was then poured into a petri dish and allowed to solidify. For all L. lactis halos, a colony of L. lactis was touched with a sterile pipette tip then stabbed into the inoculated agar. For purified EntB halos (FIG. 14 only), 1 μL of the appropriate EntB concentration was dropped onto the inoculated agar and allowed to dry completely. Dry plates were then covered and incubated overnight at 37° C. for imaging the following day.

| Molecule | synergy of the AMPs with the antibiotic [1] | activity of antibiotic alone against E. faecium [1] | reduction of E. faecium counts, antibiotic combined with the three peptides [1] | halo size, wild type versus class IIa resistant mutant [2] |
| --- | --- | --- | --- | --- |
| CC1(C)S[C@@H]2[C@H](NC(=O)[C@H](N)c3ccccc3)C(=O)N2[C@H]1C(=O)O [ampicillin] | minor | none of these drugs showed significant activity | did not exhibit similarly impressive reductions |  |
| O=C(N[C@H](CO)[C@H](O)c1ccc([N+](=O)[O-])cc1)C(Cl)Cl [chloramphenicol] |  |  | did not exhibit similarly impressive reductions |  |
| CC[C@H]1OC(=O)[C@H](C)[C@@H](O[C@H]2C[C@@](C)(OC)[C@@H](O)[C@H](C)O2)[C@H](C)[C@@H](O[C@@H]2O[C@H](C)C[C@H](N(C)C)[C@H]2O)[C@](C)(O)C[C@@H](C)C(=O)[C@H](C)[C@@H](O)[C@]1(C)O [erythromycin] |  |  | did not exhibit similarly impressive reductions |  |
| [H]/N=C(/N)N[C@H]1[C@H](O)[C@@H](O)[C@H](O[C@@H]2O[C@@H](C)[C@](O)(C=O)[C@H]2O[C@@H]2O[C@@H](CO)[C@H](O)[C@@H](O)[C@@H]2NC)[C@@H](N/C(N)=N\[H])[C@@H]1O [streptomycin] | minor | none of these drugs showed significant activity |  |  |
| Enterocin B: 53 amino acid bacteriocin of Enterococcus faecium, SEQ ID NO:42, disulfide bridge 23-52, synthesized by Ontores (ENDHRMPNELNRPNNLSKGGAKCGAAIAGGLFGIPKGPLAWAAGLANVYSKCN; disulfide 23-52) |  |  |  | similarly sized halos for both the wild type and resistant mutant |
